# Data published in patent publication US20080206311A1, “Sucrase Activity Inhibitor, Glucoamylase Activity Inhibitor and Food and Feed Containing the Same” (MITSUI SUGAR CO., LTD., priority 2005, published 2008).
# Tests used:
# [1] = system: small-intestinal enzyme liquid; assay: Decomposition of a saccharide alone (control solution) by small-intestinal enzyme liquid; format: biochemical, rat; details: 5% saccharide alone
# Experimental: (§1) Palatinose (trade name: Palatinose IC, ex Shin Mitsui Sugar Co., Ltd.) (test sample) was used as a sample for investigating each enzyme activity inhibitory effect. Maltose and sucrose were used as substrates for maltase and sucrose, respectively. The test sample and the substrates were dissolved in 0.1 M phosphate buffer (pH 6.8) at the concentration shown in Table 1 below to prepare test solutions (Solutions 4 and 5). Also, the test sample or the substrates were dissolved in 0.1 M phosphate buffer (pH 6.8), respectively to at the concentration shown in Table 1 below to prepare control solutions (Solution 1 for the test sample and Solutions 2 and 3 for the substrates).
# (§2) Two grams of rat small-intestinal acetone powder (ex Sigma Corporation) were dissolved in 20 ml of 0.1 M phosphate buffer (pH 6.8), left standing one day at 5° C., and subsequently subjected to centrifugal separation (8000 rpm×15 min.). The supernatant was filtered through a 0.8 μm membrane filter to obtain a small-intestinal enzyme liquid. This liquid contained a mixture of enzymes present in small intestine, such as sucrose, glucoamylase, maltase, and isomaltase.
# Each 0.25 ml of the small-intestinal enzyme liquid was added to each 5 ml of Solutions 1 through 5 and placed in a water bath at 37° C. to allow them to react for 60 min. while shaken at 60 strokes/min. After the reaction, they were heated in a boiling water bath for 3 min. for inactivation of the enzymes.
# (§3) The glucose concentration in each solution after the reaction was measured using the F-kit Glucose (ex Roche). A liberated glucose concentration (g/l) was calculated by subtracting the blank value (0.1 M phosphate buffer alone) and the concentration of glucose originally contained in the test sample from each glucose concentration measured.
# The fructose concentration was measured using the F-kit Fructose (ex Roche). The liberated fructose concentration, g/l, was obtained by subtracting the blank value (0.1 M phosphate buffer alone) from the resultant fructose concentration.
# The procedures in Example 1 were repeated with the exception that palatinit, palatinose or isomaltose was used as a test sample and lactose was used as a substrate. The test samples and the substrate were dissolved in 0.1 M phosphate buffer (pH 6.8) to attain the concentration shown in Table 5 to thereby prepare three test solutions. Besides, each of the test samples or the substrate was dissolved in 0.1 M phosphate buffer (pH 6.8) to attain the concentration shown in Table 5 to thereby prepare control solutions. Each 5 ml of the aforementioned test solutions and the control solutions was subjected to the enzymatic reaction according to the same procedures as in Example 1. The glucose concentration, the fructose concentration and the galactose concentration were measured. The galactose concentration was measured using F-kit Galactose (ex Roche). The liberated galactose concentration, g/l, was calculated by subtracting the blank value (0.1 M phosphate buffer alone) from the measured galactose concentration.
# maltase = assay: Maltase activity inhibition with rat small-intestinal enzyme liquid, substrate maltose; format: biochemical; details: 5% maltose + 5% test sample
# Experimental: as §1
# as §2, with “isomaltase. […]” for “isomaltase.”
# as §3
# Next, each of the liberated glucose concentration was input in the following equation to obtain decomposition inhibition ratio for maltase and sucrose. […] The decomposition inhibition ratio was determined as a measure for the inhibitory effect. […]
# Each 5 ml of the aforementioned test solutions and control solutions was subjected to the enzymatic reaction in the same procedures as in Example 1. The liberated glucose concentration, the decomposition inhibition ratio for maltase and the decomposition inhibition ratio for sucrose were calculated for each solution after the reaction.
# sucrase = molecular target: T1, sucrase (Rattus norvegicus, UniProt P23739); assay: Ratio of inhibitor to the substrate sucrose (Examples 8, 9); format: biochemical; details: 10 min
# T1 construct: This liquid contained a mixture of enzymes present in small intestine, such as sucrose, glucoamylase, maltase, and isomaltase; tissue Sigma Corporation; host or cells: rat small intestine (acetone powder), buffer extract, unpurified
# Experimental: Twenty samples with the concentrations shown in Table 11, Samples A-1 through A-20, were dissolved in 0.1 M phosphate buffer (pH 6.8) to a final volume of 2.5 ml.
# This was made in the same way as in the preparation of a small intestinal enzyme solution in Example 1.
# Each 0.15 ml of a small intestinal enzyme solution was added to each 2.5 ml of the aforementioned 20 samples, each mixture, and placed in a water bath at 37° C. to allow reaction for 10 minutes while shaken at 60 strokes/min. At the end of the reaction, the mixture was heated in a boiling water bath for 3 min. for inactivation of the enzyme. As a blank, 0.15 ml of the intestinal enzyme solution was added to 0.1 M phosphate buffer (pH 6.8) and the enzyme was inactivated immediately.
# After the reaction, the glucose concentration in each solution was measured using the F-kit Glucose (ex Roche) as in Example 1.
# The procedures in Example 8 were repeated with the exception that twenty samples with the concentrations shown in Table 12, Samples B-1 through B-20, were dissolved in 0.1 M phosphate buffer (pH 6.8) to a final volume of 2.5 ml.
# T1 sequence (P23739 whole entry): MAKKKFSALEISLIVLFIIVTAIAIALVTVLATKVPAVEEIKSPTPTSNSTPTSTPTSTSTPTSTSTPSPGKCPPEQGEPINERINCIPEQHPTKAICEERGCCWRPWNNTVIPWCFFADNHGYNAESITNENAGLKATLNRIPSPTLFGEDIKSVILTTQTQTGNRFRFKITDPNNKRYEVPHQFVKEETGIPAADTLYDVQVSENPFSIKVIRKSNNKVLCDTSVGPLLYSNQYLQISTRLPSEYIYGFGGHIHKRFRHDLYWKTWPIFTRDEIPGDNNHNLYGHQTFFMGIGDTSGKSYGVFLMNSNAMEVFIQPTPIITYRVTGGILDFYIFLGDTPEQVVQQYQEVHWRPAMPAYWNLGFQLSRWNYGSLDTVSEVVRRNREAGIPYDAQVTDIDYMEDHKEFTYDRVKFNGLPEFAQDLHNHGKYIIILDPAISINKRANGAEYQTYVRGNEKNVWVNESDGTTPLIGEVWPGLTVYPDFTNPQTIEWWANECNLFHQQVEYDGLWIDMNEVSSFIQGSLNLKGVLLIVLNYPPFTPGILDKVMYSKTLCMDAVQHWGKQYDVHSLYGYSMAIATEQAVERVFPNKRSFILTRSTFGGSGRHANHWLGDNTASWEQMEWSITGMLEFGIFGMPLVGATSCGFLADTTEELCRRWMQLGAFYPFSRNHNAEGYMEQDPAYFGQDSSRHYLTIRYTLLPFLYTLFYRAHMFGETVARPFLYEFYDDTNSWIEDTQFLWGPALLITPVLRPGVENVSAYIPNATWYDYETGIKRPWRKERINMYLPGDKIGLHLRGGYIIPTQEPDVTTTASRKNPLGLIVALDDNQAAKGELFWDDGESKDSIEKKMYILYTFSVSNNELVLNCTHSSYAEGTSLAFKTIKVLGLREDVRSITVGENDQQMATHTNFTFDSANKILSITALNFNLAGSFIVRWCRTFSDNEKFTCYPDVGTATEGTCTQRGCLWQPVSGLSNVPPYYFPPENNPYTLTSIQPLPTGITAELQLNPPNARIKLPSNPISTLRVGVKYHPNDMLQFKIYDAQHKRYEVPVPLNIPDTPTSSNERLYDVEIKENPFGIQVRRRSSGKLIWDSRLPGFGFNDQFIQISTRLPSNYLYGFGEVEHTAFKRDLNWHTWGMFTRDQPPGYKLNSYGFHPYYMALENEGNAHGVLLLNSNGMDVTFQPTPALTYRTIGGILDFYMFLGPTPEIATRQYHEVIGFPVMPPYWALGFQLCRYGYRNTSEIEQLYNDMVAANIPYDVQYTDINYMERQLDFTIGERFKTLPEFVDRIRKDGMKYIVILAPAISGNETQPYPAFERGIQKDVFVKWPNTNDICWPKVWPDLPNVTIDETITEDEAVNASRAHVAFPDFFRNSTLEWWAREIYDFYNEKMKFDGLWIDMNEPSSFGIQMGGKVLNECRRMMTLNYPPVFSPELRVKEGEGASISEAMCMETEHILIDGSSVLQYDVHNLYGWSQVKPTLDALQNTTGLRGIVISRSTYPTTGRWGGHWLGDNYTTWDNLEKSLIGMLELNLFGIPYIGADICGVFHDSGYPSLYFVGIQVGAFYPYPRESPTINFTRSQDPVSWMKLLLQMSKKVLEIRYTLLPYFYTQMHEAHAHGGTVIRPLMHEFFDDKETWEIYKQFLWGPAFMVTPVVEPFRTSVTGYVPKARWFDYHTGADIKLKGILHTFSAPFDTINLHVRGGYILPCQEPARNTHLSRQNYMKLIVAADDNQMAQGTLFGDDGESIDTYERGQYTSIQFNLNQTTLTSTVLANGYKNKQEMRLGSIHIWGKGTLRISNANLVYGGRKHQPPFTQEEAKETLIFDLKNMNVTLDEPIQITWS
compound,measurement,setting,value
"OC[C@H]1O[C@H](OC[C@H]2OC(O)(CO)[C@@H](O)[C@@H]2O)[C@H](O)[C@@H](O)[C@@H]1O (stereo partly shown) [palatinose, isomaltulose]",Liberated glucose concentration,"[1]; 37° C., 60 min, pH 6.8, Example 1 / Test Example 1",0.095 ± 0.010 g/L
same,Liberated fructose concentration,"[1]; Example 3 / Test Examples 2, 3",0.21 g/L
same,Liberated glucose concentration,"[1]; Example 3 / Test Examples 2, 3",0.11 g/L
same,Liberated glucose concentration,[1]; Example 4,0.205 g/L
same,Liberated galactose concentration,[1]; Test Example 3,0.00 g/L
same,Maltase activity inhibitory effect (in words),maltase,has a maltase activity inhibitory effect
same,Liberated glucose concentration,"maltase; 37° C., 60 min",4.757 ± 0.342 g/L
same,"Decomposition inhibition ratio, %, against maltase",maltase; Equation 1,6%
same,Inhibitory effect on the decomposition of sucrose (FIG. 5),"sucrase; sucrose concentration 0.5%, palatinose 5, 10, 50% relative to sucrose",not clear
same,Ratio of palatinose added relative to the weight of sucrose at which decomposition of sucrose was suppressed (FIG. 4),"sucrase; sucrose concentrations 3%, 5%, 10% and 15%",≥ 10%
